Consider 2 compounds from patent publication US10844066B2, “2-amino-N-[7-methoxy-2, 3-dihydroimidazo-[1,2-c] quinazolin-5-yl] pyrimidine-5-carboxamides” (Bayer Pharma Aktiengesellschaft, priority 2016, dated 2020).

pIC50: −log10 of the molar value.

For assay [1], the target named is T1, human p110α subunit of PI3K (PI3Kα) (Homo sapiens, UniProt P42336).
T1 construct: His6 (N); made in house; host or cells: S. frugiperda 9 (Sf9) insect cells
The assay can be described thus: Solid-Phase Lipid Kinase p110α assay. The format is biochemical. As to conditions: recombinant truncated (ΔN 1-108) p110α, 7.5 ng/well; final 10 μM ATP; RT 2 hours. The source says:
[Determination of IC50 Values of Compounds in Kinase Assay of PI3Kα]
Phosphatidylinositol (Ptdlns) and phosphatidylserine (PtdSer) were purchased from DOOSAN SERDARY RESEARCH LABORATORIES (Toronto, Canada). Recombinant truncated forms (ΔN 1-108) of the human p110α and p110β subunits of PI3K with N-terminal His6-Tags were expressed in S. frugiperda 9 insect cells. Recombinant human PI3Kγ (full length human PI3K p1107 fused with a His6-tag at the C-terminus expressed in S. frugiperda 9 insect cells) was obtained from ALEXIS BIOCHEMICALS (#201-055-C010; San Diego, Calif.). [γ^33P]ATP and unlabeled ATP were purchased from AMERSHAM PHARMACIA BIOTECH (Buckinghamshire, UK) and ROCHE DIAGNOSTICS (Mannheim, Germany), respectively. Scintillation cocktails Ultima Gold™ scintillation cocktail were purchased from PERKIN ELMER. Maxisorp™ plates were purchased from NALGE NUNC INTERNATIONAL K.K. (Tokyo, Japan). All other chemicals not further specified were from WAKO PURE CHEMICALS (Osaka, Japan). […]
(§1) The radioactivity incorporated into the immobilized PI substrate was determined with a BetaPlate Liquid Scintillation Counter (PerkinElmer).
(§2) The inhibition percent at each concentration of compound was calculated, and IC50 values were determined from the inhibition of curve.

Assay [2] addresses T2, human p110β subunit of PI3K (PI3Kβ) (Homo sapiens, UniProt P42338).
T2 construct: His6 (N); made in house; host or cells: S. frugiperda 9 (Sf9) insect cells
The assay is described as follows: Solid-Phase Lipid Kinase p110β assay. The format is biochemical. Particulars: recombinant truncated (ΔN 1-108) p110β, 7.5 ng/well; otherwise as PI3Kα assay. The method, then:
To assess inhibition of PI3Kα by compounds, the Maxisorp™ plates were coated with 50 μL/well of a solution containing 50 μg/ml Ptdlns and 50 μg/ml PtdSer dissolved in chloroform:ethanol (3:7). The plates were subsequently air-dried by incubation for at least 2 hours in a fume hood. The reaction was set up by mixing 25 μL/well of assay buffer 2× (100 mM MOPSO/NaOH, 0.2 M NaCl, pH 7.0, 8 mM MgCl2, 2 mg/mL BSA (fatty acid-free)), and 7.5 ng/well PI3Kα in the lipid pre-coated plate. 10× test compounds were added in 2% DMSO. The reaction was started by adding 5 μL/well of a 40 μM ATP mix (final 10 μM ATP; 20 μCi/ml[γ^33P]ATP). After incubation at RT for 2 hours, the reaction was terminated by adding 5 μl/well stop solution (25 mM EDTA, pH 8.0). The plate was then washed twice with Tris-buffered saline (TBS, pH 7.4). Ultima Gold™ (PERKINELMER) scintillation mix was added at 25 μL/well.
as §1, §2
A recombinant truncated form (ΔN 1-108) of the human p110β or […] subunit of PI3K with an N-terminal His6-Tag was expressed in S. frugiperda 9 insect cells. […]

As usually defined, the pIC50 is the negative decadic logarithm of the IC50, by convention in mol/L.

T1 sequence (P42336 109-1068): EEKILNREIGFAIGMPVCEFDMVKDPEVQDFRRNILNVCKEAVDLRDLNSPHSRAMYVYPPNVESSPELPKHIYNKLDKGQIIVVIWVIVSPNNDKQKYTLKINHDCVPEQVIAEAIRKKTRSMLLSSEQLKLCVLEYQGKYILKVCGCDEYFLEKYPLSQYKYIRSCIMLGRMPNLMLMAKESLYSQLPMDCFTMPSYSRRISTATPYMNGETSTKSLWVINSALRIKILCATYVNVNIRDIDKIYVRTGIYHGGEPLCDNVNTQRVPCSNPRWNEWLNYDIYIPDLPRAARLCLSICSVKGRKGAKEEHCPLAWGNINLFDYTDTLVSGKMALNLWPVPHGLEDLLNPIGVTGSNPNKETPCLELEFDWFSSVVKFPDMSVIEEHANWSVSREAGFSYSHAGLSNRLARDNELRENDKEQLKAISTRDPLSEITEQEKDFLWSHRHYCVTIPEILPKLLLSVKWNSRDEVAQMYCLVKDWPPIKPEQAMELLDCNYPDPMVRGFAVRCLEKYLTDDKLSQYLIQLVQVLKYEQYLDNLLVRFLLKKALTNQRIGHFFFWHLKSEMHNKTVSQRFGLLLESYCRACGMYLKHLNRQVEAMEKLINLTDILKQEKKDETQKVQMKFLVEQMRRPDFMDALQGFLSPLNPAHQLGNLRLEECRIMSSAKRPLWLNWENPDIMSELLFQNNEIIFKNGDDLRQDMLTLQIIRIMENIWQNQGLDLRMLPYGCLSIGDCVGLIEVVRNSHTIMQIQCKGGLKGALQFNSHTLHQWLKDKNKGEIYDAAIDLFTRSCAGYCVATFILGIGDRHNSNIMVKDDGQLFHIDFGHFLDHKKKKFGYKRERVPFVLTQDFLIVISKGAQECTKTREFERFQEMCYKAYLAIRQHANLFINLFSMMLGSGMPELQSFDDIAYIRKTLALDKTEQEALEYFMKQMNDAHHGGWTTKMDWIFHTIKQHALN
T2 sequence (P42338 109-1070): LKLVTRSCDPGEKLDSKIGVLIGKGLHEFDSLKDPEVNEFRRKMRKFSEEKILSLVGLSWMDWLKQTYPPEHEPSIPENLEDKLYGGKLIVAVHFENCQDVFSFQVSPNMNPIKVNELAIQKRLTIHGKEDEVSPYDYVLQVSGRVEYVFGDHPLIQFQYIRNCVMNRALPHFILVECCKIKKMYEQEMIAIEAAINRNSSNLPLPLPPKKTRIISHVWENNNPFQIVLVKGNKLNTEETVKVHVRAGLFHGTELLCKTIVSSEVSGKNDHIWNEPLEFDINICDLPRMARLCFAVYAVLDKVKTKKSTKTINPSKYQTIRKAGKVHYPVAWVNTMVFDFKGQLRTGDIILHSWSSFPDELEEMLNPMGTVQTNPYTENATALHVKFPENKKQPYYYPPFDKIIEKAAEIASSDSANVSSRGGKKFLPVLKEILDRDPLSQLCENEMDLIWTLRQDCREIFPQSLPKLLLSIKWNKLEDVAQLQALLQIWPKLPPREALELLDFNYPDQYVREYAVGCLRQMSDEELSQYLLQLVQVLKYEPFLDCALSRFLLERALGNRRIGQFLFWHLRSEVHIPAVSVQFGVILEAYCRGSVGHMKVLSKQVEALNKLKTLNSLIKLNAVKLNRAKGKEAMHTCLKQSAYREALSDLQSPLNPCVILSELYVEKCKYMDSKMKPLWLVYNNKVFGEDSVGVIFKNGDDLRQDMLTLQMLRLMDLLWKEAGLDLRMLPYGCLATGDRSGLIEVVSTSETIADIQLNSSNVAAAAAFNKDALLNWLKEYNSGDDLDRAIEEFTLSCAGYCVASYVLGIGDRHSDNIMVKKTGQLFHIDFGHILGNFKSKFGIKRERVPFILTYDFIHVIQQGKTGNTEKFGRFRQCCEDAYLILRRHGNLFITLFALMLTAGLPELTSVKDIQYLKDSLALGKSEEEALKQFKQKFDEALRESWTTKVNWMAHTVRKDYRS

Regarding `COc1c(OCCCN2CCOCC2=O)ccc2c1N=C(NC(=O)c1cnc(N)nc1)N1CCN=C21` [drawing 15, 2-amino-N-{7-methoxy-8-[3-(3-oxomorpholin-4-yl)propoxy]-2,3-dihydroimidazo[1,2-c]quinazolin-5-yl}pyrimidine-5-carboxamide], in assay [1], the pIC50 was 9.15.
Turning to `COc1c(OCCCN2CCOCC2=O)ccc2c1N=C(NC(=O)c1cnc(N)nc1)N1CCN=C21` [drawing 16, 2-amino-N-{7-methoxy-8-[3-(3-oxomorpholin-4-yl)propoxy]-2,3-dihydroimidazo[1,2-c]quinazolin-5-yl}pyrimidine-5-carboxamide], in assay [2], the pIC50 was 7.89.
